Experimental data as given in ChEMBL document CHEMBL1145789, “Benzoylalanine-derived ketoamides carrying vinylbenzyl amino residues: discovery of potent water-soluble calpain inhibitors with oral bioavailability” (J Med Chem, 2003).

Biological target: T1, Calpain-1 catalytic subunit (Homo sapiens, UniProt P07384)
T1 sequence (P07384 whole entry): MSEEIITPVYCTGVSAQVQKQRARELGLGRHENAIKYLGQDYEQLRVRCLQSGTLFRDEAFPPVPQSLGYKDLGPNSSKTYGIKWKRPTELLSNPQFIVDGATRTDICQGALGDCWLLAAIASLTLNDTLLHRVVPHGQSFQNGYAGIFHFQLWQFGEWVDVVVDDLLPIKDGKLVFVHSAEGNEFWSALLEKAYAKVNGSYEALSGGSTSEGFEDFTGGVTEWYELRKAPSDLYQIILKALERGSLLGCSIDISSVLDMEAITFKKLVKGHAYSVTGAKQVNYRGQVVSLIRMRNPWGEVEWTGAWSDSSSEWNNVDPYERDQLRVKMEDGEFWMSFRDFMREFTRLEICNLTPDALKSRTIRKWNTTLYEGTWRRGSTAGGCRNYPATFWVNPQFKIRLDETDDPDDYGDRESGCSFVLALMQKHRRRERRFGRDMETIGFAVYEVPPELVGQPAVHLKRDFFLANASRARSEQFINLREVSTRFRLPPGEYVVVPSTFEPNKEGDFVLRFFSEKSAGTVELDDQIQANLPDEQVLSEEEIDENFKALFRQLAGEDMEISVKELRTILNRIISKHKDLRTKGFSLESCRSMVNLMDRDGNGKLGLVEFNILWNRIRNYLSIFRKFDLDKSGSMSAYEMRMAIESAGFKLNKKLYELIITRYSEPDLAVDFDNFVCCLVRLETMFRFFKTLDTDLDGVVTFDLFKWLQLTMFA
Test: Inhibitory activity against human Calpain 1 isolated from erythrocytes
Type: cell-free

For O=CC(Cc1ccccc1)NC(=O)c1ccccc1/C=C/c1cccc2ccccc12 (stereo unspecified), the Ki was 15 nM.
